# From ChEMBL document CHEMBL4364247, “Development of potential preclinical candidates with promising in vitro ADME profile for the inhibition of type 1 and type 2 17β-Hydroxysteroid dehydrogenases: Design, synthesis, and biological evaluation” (Eur J Med Chem, 2019)
# Assays:
# [1] = target: T1, 17-beta-hydroxysteroid dehydrogenase type 1 (Homo sapiens, UniProt P14061); assay: Inhibition of human placental cytosolic fraction 17beta-HSD1 using [3H]-E1 as substrate in presence of […] by radio-HPLC analysis
# T1 sequence (P14061 whole entry): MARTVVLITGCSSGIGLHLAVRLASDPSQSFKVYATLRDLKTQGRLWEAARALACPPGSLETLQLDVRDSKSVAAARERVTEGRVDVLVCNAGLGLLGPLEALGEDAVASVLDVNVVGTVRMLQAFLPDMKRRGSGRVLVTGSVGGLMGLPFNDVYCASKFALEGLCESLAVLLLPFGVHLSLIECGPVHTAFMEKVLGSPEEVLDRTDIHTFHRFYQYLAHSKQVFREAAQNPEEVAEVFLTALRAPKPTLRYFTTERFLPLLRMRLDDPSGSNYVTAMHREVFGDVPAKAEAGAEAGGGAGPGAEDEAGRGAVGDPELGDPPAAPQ
# [2] = target: T2, 17-beta-hydroxysteroid dehydrogenase type 2 (Homo sapiens, UniProt P37059); assay: Inhibition of human placental microsomal fraction 17beta-HSD2 using [3H]-E2 as substrate in presence of NAD+ by radio-HPLC analysis; format: subcellular, Placenta
# T2 sequence (P37059 whole entry): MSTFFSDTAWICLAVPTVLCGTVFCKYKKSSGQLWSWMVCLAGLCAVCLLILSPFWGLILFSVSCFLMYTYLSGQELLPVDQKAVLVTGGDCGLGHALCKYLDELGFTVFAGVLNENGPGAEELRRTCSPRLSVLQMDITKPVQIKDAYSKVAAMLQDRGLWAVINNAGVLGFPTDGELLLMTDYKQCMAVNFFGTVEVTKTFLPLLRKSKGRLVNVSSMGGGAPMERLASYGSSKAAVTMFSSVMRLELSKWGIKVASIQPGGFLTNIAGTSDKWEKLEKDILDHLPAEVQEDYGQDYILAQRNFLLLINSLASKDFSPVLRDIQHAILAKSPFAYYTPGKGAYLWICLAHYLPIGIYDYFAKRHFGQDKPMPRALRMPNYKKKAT
# [3] = target: T3, 17-beta-hydroxysteroid dehydrogenase type 2 (Homo sapiens) (UniProt P37059); assay: Inhibition of human placental microsomal fraction 17beta-HSD2 at 10 nM using [3H]-E2 as substrate in presence of NAD+ by radio-HPLC analysis relative to control; format: subcellular; details: Placenta
# T3 sequence (whole entry): T2 sequence (P37059 whole entry)
# [4] = target: T4, 17-beta-hydroxysteroid dehydrogenase type 1 (Homo sapiens) (UniProt P14061); details: 10 nM
# T4 sequence (whole entry): T1 sequence (P14061 whole entry)
# Description: Inhibition of human placental cytosolic fraction 17beta-HSD1 at 10 nM using [3H]-E1 as substrate in presence of NAD+ by radio-HPLC analysis relative to control
# [5] = Half life in human liver S9 fraction at 1 uM in presence of NADPH; format: ADME, subcellular
# [6] = Aqueous solubility of the compound in phosphate-buffered saline at pH 7.2 after 1 to 24 hrs; format: physicochemical
# [7] = tested on: HEK293; assay: Cytotoxicity against human HEK293 cells assessed as cell viability at 6.3 uM after 66 hrs by MTT assay; format: cell-based; details: hek293, 66 h
# [8] = Selectivity index, ratio of cytotoxicity against HEK293 cells to IC50 for human placental cytosolic fraction 17beta-HSD1
# [9] = target: T5, Estradiol 17-beta-dehydrogenase 2 (Mus musculus) (UniProt P51658); assay: Inhibition of mouse liver homogenate 17beta-HSD2 at 1uM using [3H]-E2 as substrate in presence of NAD+ by radio-HPLC analysis relative to control; format: tissue-based
# T5 sequence (whole entry): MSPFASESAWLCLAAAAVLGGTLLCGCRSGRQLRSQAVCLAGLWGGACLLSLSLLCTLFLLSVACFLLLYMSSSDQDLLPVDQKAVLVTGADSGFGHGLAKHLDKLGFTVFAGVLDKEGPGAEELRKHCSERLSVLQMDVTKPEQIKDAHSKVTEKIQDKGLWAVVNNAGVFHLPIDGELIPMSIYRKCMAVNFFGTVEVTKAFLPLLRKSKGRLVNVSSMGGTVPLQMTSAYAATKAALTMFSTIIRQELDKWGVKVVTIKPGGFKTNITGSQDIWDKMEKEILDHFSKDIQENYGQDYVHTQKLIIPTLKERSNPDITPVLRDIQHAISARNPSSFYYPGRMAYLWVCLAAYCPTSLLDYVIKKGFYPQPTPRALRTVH
# [10] = target: T6, Steryl-sulfatase (Homo sapiens) (UniProt P08842); assay: Inhibition of human steroid sulfatase expressed in T47D cells using [3H]-E1S as substrate by radio-HPLC analysis relative to control; format: cell-based; details: concentration not given here
# T6 sequence (whole entry): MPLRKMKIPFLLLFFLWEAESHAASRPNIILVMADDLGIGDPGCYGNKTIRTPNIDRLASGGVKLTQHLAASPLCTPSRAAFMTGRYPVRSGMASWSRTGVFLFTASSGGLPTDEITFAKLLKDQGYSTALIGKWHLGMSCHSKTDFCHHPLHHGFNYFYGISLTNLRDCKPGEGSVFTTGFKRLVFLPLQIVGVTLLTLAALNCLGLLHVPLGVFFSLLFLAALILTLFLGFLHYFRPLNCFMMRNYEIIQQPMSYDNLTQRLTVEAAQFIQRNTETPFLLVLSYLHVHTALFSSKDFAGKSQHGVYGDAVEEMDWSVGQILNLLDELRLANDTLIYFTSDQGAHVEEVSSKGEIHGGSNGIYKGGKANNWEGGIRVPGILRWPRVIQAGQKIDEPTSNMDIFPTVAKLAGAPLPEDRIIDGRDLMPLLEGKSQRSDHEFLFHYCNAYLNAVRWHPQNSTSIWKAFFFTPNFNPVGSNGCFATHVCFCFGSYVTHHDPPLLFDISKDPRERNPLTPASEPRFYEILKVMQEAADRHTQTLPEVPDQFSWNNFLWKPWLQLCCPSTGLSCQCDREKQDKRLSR
# [11] = Selectivity index, ratio of IC50 for mouse liver homogenate 17beta-HSD2 to IC50 for human placental cytosolic fraction 17beta-HSD1
# [12] = target: T7, Estradiol 17-beta-dehydrogenase 2 (Mus musculus, UniProt P51658); assay: Inhibition of mouse liver homogenate 17beta-HSD2 using [3H]-E2 as substrate in presence of NAD+ by radio-HPLC analysis; format: tissue-based
# T7 sequence (P51658 whole entry): T5 sequence (whole entry)
SMILES,IC50 [1],IC50 [2],half-life at 1 µM [5],solubility [6],also measured
O=C(c1ccc(-c2cc(Cl)c(O)c(Cl)c2)s1)c1c(Cl)ccc(O)c1F,3 nM,18 nM,,,
NS(=O)(=O)c1cccc(-c2ccc(C(=O)c3c(F)ccc(O)c3F)s2)c1,,,,,inhibition [3]: 26%; inhibition [4]: 34%
COc1c(Cl)cc(-c2ccc(C(=O)c3c(Cl)ccc(O)c3F)s2)cc1Cl,0.5 nM,15 nM,< 5 min,,
Cc1cc(-c2ccc(C(=O)c3c(F)ccc(O)c3F)s2)cc(C)c1O,,7.3 nM,< 5 min,15 to 25 µM,
O=C(c1ccc(-c2cccc(NS(=O)(=O)c3ccccc3OC(F)(F)F)c2)s1)c1cc(F)c(F)c(O)c1F,,,,25 to 50 µM,
Cc1cc(-c2ccc(C(=O)c3cccc(O)c3C)s2)cc(C)c1O,,,25 min,,
Cc1cc(-c2ccc(C(=O)c3cc(F)cc(O)c3C)s2)cc(C)c1O,6 nM,76 nM,22 min,100 to 200 µM,Activity [7]: Non-Toxic; Selectivity Index [8]: 1050
CS(=O)(=O)c1cccc(-c2ccc(C(=O)c3cc(F)c(F)c(O)c3F)s2)c1,8 nM,18 nM,,> 200 µM,inhibition [9]: 60%
NS(=O)(=O)Oc1ccc(-c2ccc(C(=O)c3cc(F)c(F)c(O)c3F)s2)cc1,35 nM,6 nM,55 min,> 200 µM,inhibition [10]: 60%; Ratio IC50 [11]: < 10; IC50 [12]: 80 nM
CS(=O)(=O)n1cc(-c2ccc(C(=O)c3c(F)ccc(O)c3F)s2)cn1,80 nM,75 nM,,,
NS(=O)(=O)c1ccc(-c2ccc(C(=O)c3c(F)ccc(O)c3F)s2)cc1,,,,,inhibition [3]: 54%; inhibition [4]: 18%
COc1c(Cl)cc(-c2ccc(C(=O)c3c(F)ccc(O)c3F)s2)cc1Cl,,,< 5 min,< 5 µM,
COc1c(Cl)cc(-c2ccc(C(=O)c3c(F)ccc(O)c3Cl)s2)cc1Cl,15 nM,9.5 nM,,,
Cc1cc(-c2ccc(C(=O)c3cc(F)c(F)c(O)c3C)s2)cc(C)c1O,,,28 min,15 to 25 µM,
O=C(c1ccc(-c2cncc(F)c2)s1)c1cc(F)c(F)c(O)c1F,,,,> 200 µM,inhibition [9]: 24%
